14 compounds from patent US4088772A, “Methanodibenzocycloheptapyrroles” (E. I. Du Pont de Nemours and Company, priority 1975, dated 1978) can be followed below.

Series [1] in a line: in vivo. The following applies: mouse, in vivo, po.
Series [2] has as its system female white mice. Description: animal or person. The following applies: Mus musculus, po, oral, mice.
Series [3] relates to phenylquinone-induced writhing. Description: Phenylquinone writhing test (analgesia). The following applies: Table III, mice; for ED50: Mus musculus. In kind it is in vivo, mouse (Carworth CF1 S female). From the text:
This mouse test is predictive of analgesic response in humans. [E. Siegmund, R. Cadmus and G. Lee, Proc. Soc.
ED50 values were obtained graphically from the data.

The mark [4] stands for this setting: read-out: Catatonia ED50, Table III.
Setting [5] is: read-out: Exploratory Loss Visual ED50, Table III.
The mark [6] stands for this setting: read-out: Muscle Tone ED50, Table III.
Setting [7] is: read-out: Ptosis ED50, Table III.
Where [8] appears, read: read-out: Reflexes Grip ED50, Table III.
The mark [9] stands for this setting: read-out: Reflexes Lift ED50, Table III.
[10] abbreviates: read-out: Reflexes Pinna ED50, Table III.

Where a name gives a salt, the structure may show the parent alone. Read-outs that look alike come from different tables or passages of the source.

One may read the LD50 as the dose at which mortality reaches 50%. A high value points to lower toxicity. As a reminder, the ED50 is the dose that gives a 50% effect, or the effect in half of the subjects. As for `O=Cc1ccc2c(c1)[C@]13C[C@H]2c2ccccc2[C@H]1CN(CC1CCCC1)C3` (relative stereo) [Example 69, 5-Formyl-2-cyclopentylmethyl-2,3,8,12b-tetrahydro-1H-3a,8-methanodibenzo[3,4:6,7]cyclohepta[1,2-c]pyrrole Hydrochloride], the LD50 at 24 h in series [1] was greater than 324 mg/kg. In addition, the ED50 was 60 mg/kg in series [2] (setting [4]); 60 mg/kg in series [2] (setting [5]); 60 mg/kg in series [2] (setting [6]); 36 mg/kg in series [2] (setting [7]); greater than 324 mg/kg in series [2] (setting [8]); 60 mg/kg in series [2] (setting [9]). Further, the ED50 was 20 mg/kg in series [2] (setting [10]) and less than 130 mg/kg in series [3] (po).
In series [1], `Brc1ccc2c(c1)[C@]13C[C@H]2c2ccccc2[C@H]1CN(CC1CCCC1)C3` (relative stereo) [Example 70, 5-Bromo-2-cyclopentylmethyl-2,3,8,12b-tetrahydro-1H-3a,8-methanodibenzo[3,4:6,7]cyclohepta[1,2-c]pyrrole Hydrochloride] registered an LD50 at 24 h greater than 324 mg/kg. Besides, the median effective dose (ED50) in series [2] (setting [4]) was 12 mg/kg; in series [2] (setting [5]) it was 20 mg/kg; in series [2] (setting [6]), 12 mg/kg; in series [2] (setting [7]) it was 7 mg/kg; in series [2] (setting [8]), greater than 324 mg/kg; in series [2] (setting [9]) it was 20 mg/kg. Further, the 50% effective dose (ED50) in series [2] (setting [10]) is 7 mg/kg; in series [3] (po) it was less than 130 mg/kg.
`CC(=NO)c1ccc2c(c1)[C@]13C[C@H]2c2ccccc2[C@H]1CN(CC1CCCC1)C3` (relative stereo) [Example 71, 5-Acetyl-2-cyclopentylmethyl-2,3,8,12b-tetrahydro-1H-3a,8-methanodibenzo[3,4:6,7]cyclohepta[1,2-c]pyrrole Oxime Hydrochloride] registered a median lethal dose (LD50) at 24 h in series [1] greater than 324 mg/kg. The median effective dose (ED50) in series [2] (setting [4]) was 100 mg/kg; in series [2] (setting [5]) it was 7 mg/kg; in series [2] (setting [6]), 36 mg/kg; in series [2] (setting [7]), less than 4 mg/kg; in series [2] (setting [8]), 300 mg/kg; in series [2] (setting [9]) it was 60 mg/kg. The ED50 was 20 mg/kg in series [2] (setting [10]) and 21 mg/kg in series [3] (po).
With `Nc1ccc2c(c1)[C@H]1CN(CC3CCCC3)C[C@@]13C[C@@H]2c1ccc(N)cc13` (relative stereo) [Example 72, 5,11-Diamino-2-cyclopentylmethyl-2,3,8,12b-tetrahydro-1H-3a,8-methanodibenzo[3,4:6,7]cyclohepta[1,2-c]pyrrole], in series [1], the LD50 at 24 h is greater than 324 mg/kg. For the same compound, the ED50 in series [2] (setting [4]) is 20 mg/kg; in series [2] (setting [5]), 60 mg/kg; in series [2] (setting [6]) it was 36 mg/kg; in series [2] (setting [8]), 200 mg/kg; in series [2] (setting [9]), 60 mg/kg; in series [2] (setting [10]), 20 mg/kg. The same compound showed an ED50 in series [3] (po) of 7 mg/kg.
In the case of `O=C(O)c1ccc2c(c1)[C@]13C[C@H]2c2ccccc2[C@H]1CN(CC1CCCC1)C3` (relative stereo) [Example 73, 2-Cyclopentylmethyl-2,3,8,12b-tetrahydro-1H-3a,8-methanodibenzo[3,4:6,7]cyclohepta[1,2-c]pyrrole-5-carboxylic Acid Hydrochloride], the 50% lethal dose (LD50) at 24 h in series [1] was greater than 324 mg/kg. Moreover, the ED50 in series [2] (setting [4]) was 60 mg/kg; in series [2] (setting [5]), 60 mg/kg; in series [2] (setting [6]), 36 mg/kg; in series [2] (setting [7]), 36 mg/kg; in series [2] (setting [8]) it was greater than 324 mg/kg; in series [2] (setting [9]) it was 100 mg/kg. For the same compound, the ED50 in series [2] (setting [10]) was determined as 36 mg/kg; in series [3] (po), 21 mg/kg.
In series [1], `COC(=O)c1ccc2c(c1)[C@]13C[C@H]2c2ccccc2[C@H]1CN(CC1CCCC1)C3` (relative stereo) [Example 74, 2-Cyclopentylmethyl-2,3,8,12b-tetrahydro-1H-3a,8-methanodibenzo[3,4:6,7]cyclohepta[1,2-c]pyrrole-5-carboxylic Acid Hydrochloride, Methyl Ester] displayed a median lethal dose (LD50) at 24 h greater than 324 mg/kg. Also, the ED50 in series [2] (setting [4]) was 36 mg/kg; in series [2] (setting [5]) it was 36 mg/kg; in series [2] (setting [6]) it was 36 mg/kg; in series [2] (setting [7]), less than 4 mg/kg; in series [2] (setting [8]) it was greater than 324 mg/kg; in series [2] (setting [9]), 36 mg/kg. Moreover, the median effective dose (ED50) in series [2] (setting [10]) came to 7 mg/kg; in series [3] (po), 11 mg/kg.
In turn, `Clc1ccc2c(c1)[C@]13C[C@H]2c2ccccc2[C@H]1CN(CC1CCCC1)C3` (relative stereo) [Example 76, 5-Chloro-2-cyclopentylmethyl-2,3,8,12b-tetrahydro-1H-3a,8-methanodibezno[3,4:6,7]cyclohepta[1,2-c]pyrrole Hydrochloride] returned a 50% lethal dose (LD50) at 24 h in series [1] of 300 mg/kg. Further, the 50% effective dose (ED50) is 12 mg/kg in series [2] (setting [4]); 7 mg/kg in series [2] (setting [5]); 12 mg/kg in series [2] (setting [6]); 7 mg/kg in series [2] (setting [7]); greater than 324 mg/kg in series [2] (setting [8]); 20 mg/kg in series [2] (setting [9]). Besides, the 50% effective dose (ED50) is 20 mg/kg in series [2] (setting [10]) and less than 130 mg/kg in series [3] (po).
`Fc1ccc2c(c1)[C@]13C[C@H]2c2ccccc2[C@H]1CN(CC1CCCC1)C3` (relative stereo) [Example 77, 5-Fluoro-2-cyclopentylmethyl-2,3,8,12b-tetrahydro-1H-3a,8-methanodibenzo[3,4:6,7]cyclohepta[1,2-c]pyrrole Hydrochloride] yielded an LD50 at 24 h in series [1] greater than 324 mg/kg. Moreover, the median effective dose (ED50) was 20 mg/kg in series [2] (setting [4]); 7 mg/kg in series [2] (setting [5]); 20 mg/kg in series [2] (setting [6]); 7 mg/kg in series [2] (setting [7]); greater than 324 mg/kg in series [2] (setting [8]); 20 mg/kg in series [2] (setting [9]). For the same compound, the median effective dose (ED50) was 36 mg/kg in series [2] (setting [10]) and less than 130 mg/kg in series [3] (po).
`FC(F)c1ccc2c(c1)[C@]13C[C@H]2c2ccccc2[C@H]1CN(CC1CCCC1)C3` (relative stereo) [Example 78, 5-Difluoromethyl-2-cyclopentylmethyl-2,3,8,12b-tetrahydro-1H-3a,8-methanodibenzo[3,4:6,7]cyclohepta[1,2c]pyrrole Hydrochloride] gave an LD50 at 24 h in series [1] greater than 324 mg/kg. The ED50 in series [2] (setting [4]) was 20 mg/kg; in series [2] (setting [5]) it was 7 mg/kg; in series [2] (setting [6]) it was 7 mg/kg; in series [2] (setting [7]), less than 4 mg/kg; in series [2] (setting [8]) it was greater than 324 mg/kg; in series [2] (setting [9]) it was 20 mg/kg. For the same compound, the ED50 in series [2] (setting [10]) is 7 mg/kg; in series [3] (po), less than 130 mg/kg.
Regarding `Clc1ccc2c(c1)[C@H]1CN(CC3CCCC3)C[C@@]13C[C@@H]2c1ccc(Cl)cc13` (relative stereo) [Example 79, 5,11-Dichloro-2-cyclopentylmethyl-2,3,8,12b-tetrahydro1H-3a,8-methanodibenzo[3,4:6,7]cyclohepta[1,2-c]pyrrole Hydrochloride], the 50% lethal dose (LD50) at 24 h in series [1] is greater than 324 mg/kg. Moreover, the ED50 in series [2] (setting [4]) was 20 mg/kg; in series [2] (setting [5]) it was 7 mg/kg; in series [2] (setting [6]), 36 mg/kg; in series [2] (setting [7]), 7 mg/kg; in series [2] (setting [8]) it was greater than 324 mg/kg; in series [2] (setting [9]) it was 36 mg/kg. In addition, in series [2] (setting [10]), the ED50 was 7 mg/kg. In addition, the “Phenylquinone Analgesia ED50” value in series [3] (oral) was “active”.
In series [1], `[N-]=[N+]=Nc1ccc2c(c1)[C@]13C[C@H]2c2ccccc2[C@H]1CN(CC1CCCC1)C3` (relative stereo) [Example 82, 5-Azido-2-cyclopentylmethyl-2,3,8,12b-tetrahydro-1H-3a,8-methanodibenzo[3,4:6,7]cyclohepta[1,2-c]-pyrrole] had an LD50 at 24 h greater than 324 mg/kg. Also, the 50% effective dose (ED50) was 60 mg/kg in series [2] (setting [4]); 7 mg/kg in series [2] (setting [5]); 20 mg/kg in series [2] (setting [6]); 7 mg/kg in series [2] (setting [7]); greater than 324 mg/kg in series [2] (setting [8]); 60 mg/kg in series [2] (setting [9]). The ED50 in series [2] (setting [10]) is 36 mg/kg; in series [3] (po), less than 130 mg/kg.
Regarding `ON=Cc1ccc2c(c1)[C@]13C[C@H]2c2ccccc2[C@H]1CN(CC1CCCC1)C3` (relative stereo) [Example 83, 5-Formyl-2-cyclopentylmethyl-2,3,8,12b-tetrahydro-1H-3a,8-methanodibenzo[3,4:6,7]cyclohepta[1,2-c]pyrrole Oxime Hydrochloride], the LD50 at 24 h in series [1] was greater than 324 mg/kg. Besides, the 50% effective dose (ED50) was 36 mg/kg in series [2] (setting [4]); 20 mg/kg in series [2] (setting [5]); 36 mg/kg in series [2] (setting [6]); 36 mg/kg in series [2] (setting [7]); greater than 324 mg/kg in series [2] (setting [8]); 60 mg/kg in series [2] (setting [9]). The median effective dose (ED50) in series [2] (setting [10]) worked out at 20 mg/kg; in series [3] (po), 2.7 mg/kg.
Take `CNC(=O)ON=Cc1ccc2c(c1)[C@]13C[C@H]2c2ccccc2[C@H]1CN(CC1CCCC1)C3` (relative stereo) [Example 84, 5-Formyl-2-cyclopentylmethyl-2,3,8,12b-tetrahydro-1H-3a,8-methanodibenzo[3,4:6,7]cyclohepta[1,2-c]pyrrole Oxime-O-(N-methylcarbamate) Hydrochloride]: the LD50 at 24 h in series [1] was greater than 324 mg/kg. The median effective dose (ED50) was 100 mg/kg in series [2] (setting [4]); 60 mg/kg in series [2] (setting [5]); 100 mg/kg in series [2] (setting [6]); 36 mg/kg in series [2] (setting [7]); greater than 324 mg/kg in series [2] (setting [8]); 200 mg/kg in series [2] (setting [9]). Moreover, the 50% effective dose (ED50) in series [2] (setting [10]) was 100 mg/kg; in series [3] (oral), less than 130 mg/kg.
In the case of `N#Cc1ccc2c(c1)[C@]13C[C@H]2c2ccccc2[C@H]1CN(CC1CCCC1)C3` (relative stereo) [Example 85, 5-Cyano-2-cyclopentylmethyl-2,3,8,12b-tetrahydro-1H-3a,8-methanodibenzo[3,4:6,7]cyclohepta[1,2-c]-pyrrole Hydrochloride], the LD50 at 24 h in series [1] stood at 300 mg/kg. The ED50 was 15 mg/kg in series [2] (setting [4]); 4.4 mg/kg in series [2] (setting [5]); 15 mg/kg in series [2] (setting [6]); 4.4 mg/kg in series [2] (setting [7]); greater than 324 mg/kg in series [2] (setting [8]); 17 mg/kg in series [2] (setting [9]). In addition, the ED50 in series [2] (setting [10]) stood at 9.7 mg/kg; in series [3] (po), 1.7 mg/kg.
